Laboratory results as given in patent US20240384350A1, “METHODS OF TREATING CANCER WITH KINASE INHIBITORS” (BOARD OF REGENTS, THE UNIVERSITY OF TEXAS SYSTEM, priority 2021, published 2024).

Tests used:
Experiment in all cases: Ba/F3 drug screening, Cell Titer Glo, IC50 Mut/WT
Type in all cases: cell-based
[1] = biological target: T1, EGFR L833F (Homo sapiens, UniProt P00533, L833F); settings: Classical-Like, 72 hours
T1 construct: expressed in transfected cells; host or cells: Ba/F3 cells, retroviral pBabe-Puro vector

[2] = biological target: T2, EGFR L858R/V834L (Homo sapiens, UniProt P00533, L858R/V834L); settings: Classical-Like, 72 hours
T2 construct: expressed in transfected cells; host or cells: Ba/F3 cells, retroviral pBabe-Puro vector

[3] = biological target: T3, EGFR Ex19del (Homo sapiens, UniProt P00533, DEL746-750); settings: Classical-Like, 72 hours
T3 construct: expressed in transfected cells; host or cells: Ba/F3 cells, retroviral pBabe-Puro vector
Experimental: Data represent the ratio of the IC50 value for a given TKI for cells with a classical-like EGFR mutation to the IC50 value for cells with wildtype EGFR.
(§1) Ba/F3 cell generation, drug screening, and IC50 approximations. Ba/F3 cells were obtained as a gift from Dr. Gordon Mills (MD Anderson Cancer Center), and maintained in RPMI (Sigma) containing 10% FBS, 1% penicillin/streptomycin, and 10 ng/ml recombinant mIL-3 (R&D Biosystems). To establish stable Ba/F3 cell lines, Ba/F3 cells were transduced with retroviruses containing mutant EGFR plasmids for 12-24 hours.
After 48-72 hours of transduction, 2 μg/ml puromycin (Invitrogen) was added to Ba/F3 cell lines in complete RPMI. To select for EGFR positive cell lines, cells were stained with PE-EGFR (Biolegend) and sorted by FACS. After sorting, EGFR positive cells were maintained in RPMI containing 10% FBS, 1% penicillin/streptomycin, and 1 ng/ml EGF to support cell viability. […] Shortly, cells were plated in 384-well plates (Greiner Bio-One) at 2000-3000 cells per well in technical triplicate. Seven different concentrations of TKIs or DMSO vehicle were added to reach a final volume of 40 μL per well. After 72 hours, 11 μL of Cell Titer Glo (Promega) was added to each well. Plates were incubated for a minimum of 10 minutes, and bioluminescence was determined using a FLUOstar OPTIMA plate reader (BMG LABTECH). Raw bioluminescence values were normalized to DMSO control treated cells, and values were plotted in GraphPad Prism. […] Drug screens were performed in technical triplicate on each plate and either duplicate or triplicate biological replicates.

[4] = biological target: T4, EGFR L858R (Homo sapiens, UniProt P00533, L858R); settings: Classical-Like, 72 hours
T4 construct: expressed in transfected cells; host or cells: Ba/F3 cells, retroviral pBabe-Puro vector

[5] = biological target: T5, EGFR L858R S784F (Homo sapiens, UniProt P00533, L858R/S784F); settings: Classical-Like, 72 hours
T5 construct: expressed in transfected cells; host or cells: Ba/F3 cells, retroviral pBabe-Puro vector (vector made by GeneScript from EGFR L858R)

[6] = biological target: T6, EGFR A767insASV (Homo sapiens, UniProt P00533, DUP767-769); settings: Ex20, 72 hours
T6 construct: expressed in transfected cells; host or cells: Ba/F3 cells, retroviral pBabe-Puro vector

[7] = biological target: T7, EGFR S768dupSVD V769M (Homo sapiens, UniProt P00533, INS768MDS/V769M); settings: Ex20, 72 hours
T7 construct: expressed in transfected cells; host or cells: Ba/F3 cells, retroviral pBabe-Puro vector (vector made by GeneScript from EGFR S768dupSVD, c.2305G > A)

[8] = biological target: T8, EGFR H773insNPH (Homo sapiens, UniProt P00533, INS773NPH); settings: Ex20, 72 hours
T8 construct: expressed in transfected cells; host or cells: Ba/F3 cells, retroviral pBabe-Puro vector
Experimental: Data represent the ratio of the IC50 value for a given TKI for cells with an ex20ins EGFR mutation to the IC50 value for cells with wildtype EGFR.
as §1
After 48-72 hours of transduction, 2 μg/ml puromycin (Invitrogen) was added to Ba/F3 cell lines in complete RPMI. To select for EGFR positive cell lines, cells were stained with PE-EGFR (Biolegend) and sorted by FACS. After sorting, EGFR positive cells were maintained in RPMI containing 10% FBS, 1% penicillin/streptomycin, and 1 ng/ml EGF to support cell viability. Drug screening was performed as previously described^41,42. Shortly, cells were plated in 384-well plates (Greiner Bio-One) at 2000-3000 cells per well in technical triplicate. Seven different concentrations of TKIs or DMSO vehicle were added to reach a final volume of 40 μL per well. After 72 hours, 11 μL of Cell Titer Glo (Promega) was added to each well. Plates were incubated for a minimum of 10 minutes, and bioluminescence was determined using a FLUOstar OPTIMA plate reader (BMG LABTECH). Raw bioluminescence values were normalized to DMSO control treated cells, and values were plotted in GraphPad Prism. […] Drug screens were performed in technical triplicate on each plate and either duplicate or triplicate biological replicates. […] Statistical differences between groups were determined by ANOVA as described in the figure legends.

[9] = biological target: T9, EGFR L747_K754del insATSPE (Homo sapiens, UniProt P00533, DEL747-749/K754E); settings: T790M-like-3S, 72 hours
T9 construct: expressed in transfected cells; host or cells: Ba/F3 cells, retroviral pBabe-Puro vector
Experimental: (§2) Data represent the ratio of the IC50 value for a given TKI for cells with a T790M-like-3S EGFR mutation to the IC50 value for cells with wildtype EGFR.
as §1
(§3) After 48-72 hours of transduction, 2 μg/ml puromycin (Invitrogen) was added to Ba/F3 cell lines in complete RPMI. To select for EGFR positive cell lines, cells were stained with PE-EGFR (Biolegend) and sorted by FACS. After sorting, EGFR positive cells were maintained in RPMI containing 10% FBS, 1% penicillin/streptomycin, and 1 ng/ml EGF to support cell viability. Drug screening was performed as previously described^41,42. Shortly, cells were plated in 384-well plates (Greiner Bio-One) at 2000-3000 cells per well in technical triplicate. Seven different concentrations of TKIs or DMSO vehicle were added to reach a final volume of 40 μL per well. After 72 hours, 11 μL of Cell Titer Glo (Promega) was added to each well. Plates were incubated for a minimum of 10 minutes, and bioluminescence was determined using a FLUOstar OPTIMA plate reader (BMG LABTECH). Raw bioluminescence values were normalized to DMSO control treated cells, and values were plotted in GraphPad Prism. […] Drug screens were performed in technical triplicate on each plate and either duplicate or triplicate biological replicates.

[10] = biological target: T10, EGFR L858R/T790M (Homo sapiens, UniProt P00533, L858R/T790M); settings: T790M-like-3S, 72 hours
T10 construct: expressed in transfected cells; host or cells: Ba/F3
Experimental: as §2, §1, §3

[11] = biological target: T11, EGFR G719A T790M (Homo sapiens, UniProt P00533, G719A/T790M); settings: T790M-like-3S, 72 hours
T11 construct: expressed in transfected cells; host or cells: Ba/F3
Experimental: as §2, §1, §3

[12] = biological target: T12, EGFR G719S T790M (Homo sapiens, UniProt P00533, G719S/T790M); settings: T790M-like-3S, 72 hours
T12 construct: expressed in transfected cells; host or cells: Ba/F3

[13] = biological target: T13, EGFR S768I/T790M (Homo sapiens, UniProt P00533, S768I/T790M); settings: T790M-like-3S, 72 hours
T13 construct: expressed in transfected cells; host or cells: Ba/F3
Experimental: as §2, §1, §3

[14] = biological target: T14, EGFR Ex19del/T790M/G724S (Homo sapiens, UniProt P00533, DEL746-750/G724S/T790M); settings: T790M-like-3S, 72 hours
T14 construct: expressed in transfected cells; host or cells: Ba/F3

[15] = biological target: T15, EGFR G724S T790M (Homo sapiens, UniProt P00533, G724S/T790M); settings: T790M-like-3R, 72 hours
T15 construct: expressed in transfected cells; host or cells: Ba/F3

[16] = biological target: T16, EGFR E709_T710del insD (Homo sapiens, UniProt P00533, DEL709-709/T710D)
T16 construct: expressed in transfected cells; host or cells: Ba/F3

[17] = biological target: T17, EGFR E709A G719S (Homo sapiens, UniProt P00533, E709A/G719S)
T17 construct: expressed in transfected cells; host or cells: Ba/F3
Experimental: (§4) Data represent the ratio of the IC50 value for a given TKI for cells with a PACC EGFR mutation to the IC50 value for cells with wildtype EGFR.
as §1, §3

[18] = biological target: T18, EGFR E709A (Homo sapiens, UniProt P00533, E709A)
T18 construct: expressed in transfected cells; host or cells: Ba/F3
Experimental: as §4, §1, §3

[19] = biological target: T19, EGFR L718V (Homo sapiens, UniProt P00533, L718V)
T19 construct: expressed in transfected cells; host or cells: Ba/F3

[20] = biological target: T20, EGFR G719A/R776C (Homo sapiens, UniProt P00533, G719A/R776C)
T20 construct: expressed in transfected cells; host or cells: Ba/F3

[21] = biological target: T21, EGFR G724S (Homo sapiens, UniProt P00533, G724S)
T21 construct: expressed in transfected cells; host or cells: Ba/F3

[22] = biological target: T22, EGFR V774M (Homo sapiens, UniProt P00533, V774M)
T22 construct: host or cells: Ba/F3

[23] = biological target: T23, EGFR L858R L718Q (Homo sapiens, UniProt P00533, L718Q/L858R)
T23 construct: host or cells: Ba/F3

[24] = biological target: T24, EGFR Ex19del G724S (Homo sapiens, UniProt P00533, DEL746-750/G724S)
T24 construct: expressed in transfected cells; host or cells: Ba/F3

[25] = biological target: T25, EGFR L858R/C797S (Homo sapiens, UniProt P00533, C797S/L858R)
T25 construct: expressed in transfected cells; host or cells: Ba/F3
Experimental: as §4, §1, §3

[26] = biological target: T26, EGFR Ex19del T854I (Homo sapiens, UniProt P00533, DEL746-750/T854I)
T26 construct: expressed in transfected cells; host or cells: Ba/F3 (retroviral transduction, pBabe-Puro based vectors)
Experimental: as §4, §1, §3

Structure (SMILES) | ratio of IC50 for cells with mutant EGFR to IC50 for cells with wildtype EGFR (Mut/WT) [1] | ratio of IC50 for cells with mutant EGFR to IC50 for cells with wildtype EGFR (Mut/WT) [2] | ratio of IC50 for cells with mutant EGFR to IC50 for cells with wildtype EGFR (Mut/WT) [3] | ratio of IC50 for cells with mutant EGFR to IC50 for cells with wildtype EGFR (Mut/WT) [4] | ratio of IC50 for cells with mutant EGFR to IC50 for cells with wildtype EGFR (Mut/WT) [5] | ratio of IC50 for cells with mutant EGFR to IC50 for cells with wildtype EGFR (Mut/WT) [6] | ratio of IC50 for cells with mutant EGFR to IC50 for cells with wildtype EGFR (Mut/WT) [7] | ratio of IC50 for cells with mutant EGFR to IC50 for cells with wildtype EGFR (Mut/WT) [8] | ratio of IC50 for cells with mutant EGFR to IC50 for cells with wildtype EGFR (Mut/WT) [9] | ratio of IC50 for cells with mutant EGFR to IC50 for cells with wildtype EGFR (Mut/WT) [10] | ratio of IC50 for cells with mutant EGFR to IC50 for cells with wildtype EGFR (Mut/WT) [11] | ratio of IC50 for cells with mutant EGFR to IC50 for cells with wildtype EGFR (Mut/WT) [12] | ratio of IC50 for cells with mutant EGFR to IC50 for cells with wildtype EGFR (Mut/WT) [13] | ratio of IC50 for cells with mutant EGFR to IC50 for cells with wildtype EGFR (Mut/WT) [14] | ratio of IC50 for cells with mutant EGFR to IC50 for cells with wildtype EGFR (Mut/WT) [15] | further results
C=CC(=O)N[C@H]1C=C(C)c2c(-c3cnc4ccccc4c3)c3c(N)ncnc3n2C1 [TAS 6417] | 0.06886 | 0.0005227 | 0.00149 | 0.003918 | 0.001423 | 0.1359 | 0.02679 | 0.1843 | 0.0004661 | 0.01963 | 0.01296 | 0.032 | 0.1153 | 0.1997 | 0.1693 | ratio of the IC50 value for cells with a PACC EGFR mutation to the IC50 value for cells with wildtype EGFR ([16]; Ba/F3 cells, EGFR E709_T710del insD (PACC), Mut/WT): 0.3335; ratio of the IC50 value for cells with a PACC EGFR mutation to the IC50 value for cells with wildtype EGFR ([17]; Ba/F3 cells, EGFR E709A G719S (PACC), Mut/WT): 0.03472; ratio of the IC50 value for cells with a PACC EGFR mutation to the IC50 value for cells with wildtype EGFR ([18]; Ba/F3 cells, EGFR E709A (PACC), Mut/WT): 0.3054; ratio of the IC50 value for cells with a PACC EGFR mutation to the IC50 value for cells with wildtype EGFR ([19]; Ba/F3 cells, EGFR L718V (PACC), Mut/WT): 0.02378; ratio of the IC50 value for cells with a PACC EGFR mutation to the IC50 value for cells with wildtype EGFR ([20]; Ba/F3 cells, EGFR G719A/R776C (PACC), Mut/WT): 3.055; ratio of the IC50 value for cells with a PACC EGFR mutation to the IC50 value for cells with wildtype EGFR ([21]; Ba/F3 cells, EGFR G724S (PACC), Mut/WT): 3.055; ratio of the IC50 value for cells with a PACC EGFR mutation to the IC50 value for cells with wildtype EGFR ([22]; Ba/F3 cells, EGFR V774M (PACC), Mut/WT): 0.3282; ratio of the IC50 value for cells with a PACC EGFR mutation to the IC50 value for cells with wildtype EGFR ([23]; Ba/F3 cells, EGFR L858R L718Q (PACC), Mut/WT): 0.0157; ratio of the IC50 value for cells with a PACC EGFR mutation to the IC50 value for cells with wildtype EGFR ([24]; Ba/F3 cells, EGFR Ex19del G724S (PACC), Mut/WT): 0.2809; ratio of the IC50 value for cells with a PACC EGFR mutation to the IC50 value for cells with wildtype EGFR ([25]; Ba/F3 cells, EGFR L858R/C797S (PACC), Mut/WT): 3.055; ratio of the IC50 value for cells with a PACC EGFR mutation to the IC50 value for cells with wildtype EGFR ([26]; Ba/F3 cells, EGFR Ex19del T854I (PACC), Mut/WT): 0.0152
CN(C)C/C=C/C(=O)Nc1cc2c(Nc3ccc(Cl)c(Br)c3)ncnc2cn1 [Tarlox-TKI] | 0.07887 | 0.002571 | 0.01427 | 0.1181 | 0.001643 | 0.9945 | 0.33 | 11.56 | 4.874 | 11.95 | 0.6778 | 3.949 | 60.19 | 4.197 | 1.041 | ratio of IC50 for cells with mutant EGFR to IC50 for cells with wildtype EGFR (Mut/WT) ([16]; PACC, E709_T710del insD, Ba/F3, 72 hours): 0.782; ratio of IC50 for cells with mutant EGFR to IC50 for cells with wildtype EGFR (Mut/WT) ([17]; PACC, E709A G719S, Ba/F3, 72 hours): 0.1143; ratio of IC50 for cells with mutant EGFR to IC50 for cells with wildtype EGFR (Mut/WT) ([18]; PACC, E709A, Ba/F3, 72 hours): 0.4803; ratio of IC50 for cells with mutant EGFR to IC50 for cells with wildtype EGFR (Mut/WT) ([19]; PACC, L718V, Ba/F3, 72 hours): 1.421; ratio of IC50 for cells with mutant EGFR to IC50 for cells with wildtype EGFR (Mut/WT) ([20]; PACC, G719A/R776C, Ba/F3, 72 hours): 0.03266; ratio of IC50 for cells with mutant EGFR to IC50 for cells with wildtype EGFR (Mut/WT) ([21]; PACC, G724S, Ba/F3, 72 hours): 8.499; ratio of IC50 for cells with mutant EGFR to IC50 for cells with wildtype EGFR (Mut/WT) ([22]; PACC, V774M, Ba/F3, 72 hours): 0.2507; ratio of IC50 for cells with mutant EGFR to IC50 for cells with wildtype EGFR (Mut/WT) ([23]; PACC, L858R L718Q, Ba/F3, 72 hours): 0.3655; ratio of IC50 for cells with mutant EGFR to IC50 for cells with wildtype EGFR (Mut/WT) ([24]; PACC, Ex19del G724S, Ba/F3, 72 hours): 2.658; ratio of IC50 for cells with mutant EGFR to IC50 for cells with wildtype EGFR (Mut/WT) ([25]; PACC, L858R/C797S, Ba/F3, 72 hours): 0.7434; ratio of IC50 for cells with mutant EGFR to IC50 for cells with wildtype EGFR (Mut/WT) ([26]; PACC, Ex19del T854I, Ba/F3, 72 hours): 0.7019
